“Also recorded” adds a separate entry of the source.
Key:
[1] = Phase I studies; cited from earlier work
[2] = system: advanced colorectal, NSCLC, breast, and pancreatic cancer; details: 67 patients; cited from earlier work
MAP kinase-kinase = details: many assays; read-out: IC50 values for PD 98059-induced effects; cited from earlier work
melanoma = details: cited from earlier work
[3] = in vivo; cited from earlier work
P0 = details: U0126 treated cultures
MAPK = MAPK (Erk) activation in Schwann cell-DRG co-cultures, Western blot; type: cell-based, rat
Protocol: (§1) Monoclonal antibody to phosphorylated Akt and polyclonal antibody to phosphorylated MAPK were purchased from Cell Signaling and were used at dilutions of 1:1000 and 1:500, respectively. Polyclonal antibodies to Akt and MAPK (Promega) were used at dilutions of 1:1000 and 1:5000, respectively.
To prepare cell lysates, 90-95% confluent rat Schwann cells on 60 mm plates or co-cultures were washed twice in phosphate-buffered saline (PBS) and then lysed in 300 μl ice-cold lysis buffer (50 mM Tris HCl pH 7.4, 1% NP-40, 0.25% Sodium Deoxycholate, 150 mM NaCl, 1 mM EGTA, 10 μg/ml Leupeptin, 2 μg/ml Aprotinin, 1 mM PMSF and 0.5 mM sodium orthovanadate). Lysates were cleared by centrifugation for 15 min at 14,000 rpm in the cold and the protein concentration of the supernatants was determined according to manufacturer specifications (Bio-Rad: Hercules, Calif.). For Western blot analysis, 50-70 μg of Schwann cell lysates were size-fractionated on 10% SDS-polyacrylamide gels and transferred onto PVDF membranes. After blocking in 5% milk, the membranes were incubated with appropriate primary antibodies prepared in blocking solution. After incubating with horseradish peroxidase conjugated secondary antibodies, the protein bands were visualized by enhanced chemiluminescence. For immunoprecipitation, 500 μg of Schwann cell lysates were incubated with 0.6 μg of primary antibody for 3 hours at 4° C., then incubated with 50 μl Sepharose A beads for 1 hour. […]
(§2) To assess the possibility that the inhibitory effect of GGF2 on myelination could be due to its ability to induce a robust MAPK activation in Schwann cells, the present inventors used a well-established in vitro myelinating culture system in which Schwann cells are co-cultured with dorsal root ganglion (DRG) neurons and induced to myelinate the associated axons by addition of ascorbic acid to the culture media. […] Twenty minutes later, cell lysates were prepared and MAPK activation was determined by Western blot analysis. […]

Krox20 = details: U0126 treatment, 11 days
Protocol: Schwann cell-DRG co-cultures were pre-treated with U0126 for 30 minutes then GGF (0.6 nM) was added in the continuous presence of U0126. After 45 minutes the cell lysates were prepared and level of p-Erk and p-Akt were determined. […] Control cultures were maintained without any treatment (NT). […] Co-cultures were treated with increasing concentration of U0126 (0.5, 1 and 3 nM) under myelinating condition and 11 days later, myelination was analyzed as above. […] Co-cultures were maintained under myelinating condition in the presence of GGF or GGF+U0126 (0.5, 1 and 3 nM) for 11 days and the cell lysates were analyzed for MBP, c-Jun and Krox 20 expression. Actin level served as a loading control.
(§3) To prepare cell lysates, 90-95% confluent rat Schwann cells on 60 mm plates or co-cultures were washed twice in phosphate-buffered saline (PBS) and then lysed in 300 μl ice-cold lysis buffer (50 mM Tris HCl pH 7.4, 1% NP-40, 0.25% Sodium Deoxycholate, 150 mM NaCl, 1 mM EGTA, 10 μg/ml Leupeptin, 2 μg/ml Aprotinin, 1 mM PMSF and 0.5 mM sodium orthovanadate). Lysates were cleared by centrifugation for 15 min at 14,000 rpm in the cold and the protein concentration of the supernatants was determined according to manufacturer specifications (Bio-Rad: Hercules, Calif.). […]

[4] = system: Schwann cell-DRG neuron co-cultures; experiment: Myelination in Schwann cell-DRG neuron co-cultures, MBP immunostaining; type: cell-based, rat
Protocol: Schwalm cells were prepared from sciatic nerves of newborn rats (1-2 day old) as described previously (Brookes et al., Brain Res. 1979; 165:105-118). For routine culture, Schwann cells were grown in. Dulbecco's modified Eagle's medium (DMEM) with 10% fetal bovine serum (FBS) supplemented with EGF-domain neuregulin-1 (R&D Systems) (10 ng/ml) and Forskolin (2 μM). Cells between passage 2-4 were used in all experiments described in the text.
Dissociated DRG were prepared from embryonic day 14.5 rat embryos as described previously (Eldridge et al., J Cell Biol. 1987; 105(2):1023-34) and plated onto collagen (type-1 rat tail collagen,)-coated 12 mm glass coverslips at a density of 1.25 DRG/coverslip. Five to six hours later, the cultures were flooded with neurobasal medium (Cellgro,) supplemented with B27 (GIBCO), 20% glucose, NGF (50 ng/ml) and 5-fluorodeoxyuridine (FUdR, 10 μM) and maintained in the medium for additional 2-3 days in order to remove proliferating non-neuronal cells. Cultures were then switched to fresh medium without FUdR and maintained until the DRG axons reached the periphery of the coverslips. After the axonal networks were established, Schwann cells were plated onto the neurons at a density of 100,000 cells/coverslip. […] Ten to eleven days later, myelination was assessed by immunostaining for MBP. […]

MEK-1 and MEK-2 = details: cited from earlier work
c-Jun = c-Jun expression in co-culture lysates, Western blot; type: cell-based, rat; details: GGF+U0126, 11 days
Description: Control cultures were maintained without any treatment (NT). Scale bar: 100 μm. […] Error bars indicate±SE (p<0.001). […] Actin level served as a loading control.

Akt = Akt (PI3-kinase pathway) activation in Schwann cell-DRG co-cultures, Western blot; type: cell-based, rat; details: U0126 with GGF2
Protocol: as §1, §3, §2

metastatic breast cancer = details: less in the intermittent dosing group than the continuous; cited from earlier work
advanced kidney cancer = details: cited from earlier work
[5] = patients who received sorafenib

O=C(NOCC1CC1)c1ccc(F)c(F)c1Nc1ccc(I)cc1Cl [CI-1040]
side effects [1]: mild gastrointestinal and skin side effects | responses [2]: no responses | tolerability [2]: well tolerated

COc1cccc(-c2cc(=O)c3ccccc3o2)c1N [PD 98059]
IC50 (MAP kinase-kinase): 1 to 20 µM

O=C(NOC[C@H](O)CO)c1ccc(F)c(F)c1Nc1ccc(I)cc1F [PD 0325901]
response in melanoma patients (melanoma; human, in vivo): some partial response | dose at which ocular and neurological toxicity presented (melanoma; oral): ≥ 10 mg twice-a-day

N#C/C(=C(/N)Sc1ccc(N)cc1)c1ccccc1C(F)(F)F [SL 327]
brain penetration [3]: brain penetrant

N#CC(=C(/N)Sc1ccccc1N)/C(C#N)=C(\N)Sc1ccccc1N [U0126]
P0 expression (P0): increase in P0 expression | level of GGF2-induced MAPK activation (MAPK; U0126 1 μM, 30 minutes pretreatment, GGF2 0.6 nM): reduced to the basal level | MAPK activation in the co-culture (MAPK; U0126 10 μM, 30 minutes pretreatment, GGF2 0.6 nM): completely abolished | GGF2-induced Erk activation (MAPK; increasing concentrations of U0126, FIG. 3B): inhibited GGF2-induced Erk activation in a dosage-dependent manner | Krox20 expression (Krox20): increase in Krox20 expression | level of myelination ([4]; U0126 in the absence of GGF2, FIG. 3E): increase in the level of myelination | myelination in GGF2-treated co-cultures ([4]; co-treated with GGF2 and U0126, ten to eleven days): dose-dependent increase in myelination; also recorded: the inhibitory effect of GGF2 was reversed | higher potency than PD 98059 (MEK-1 and MEK-2): 100 fold | GGF-induced c-Jun expression (c-Jun): down-regulating | effect on GGF2-induced PI3-kinase / Akt activation (Akt): no effect

Cn1cncc1[C@@](N)(c1ccc(Cl)cc1)c1ccc2c(c1)c(-c1cccc(Cl)c1)cc(=O)n2C [Zarnestra, tipifarnib]
major side effects observed (metastatic breast cancer): bone marrow suppression and neuropathy

CNC(=O)c1cc(Oc2ccc(NC(=O)Nc3ccc(Cl)c(C(F)(F)F)c3)cc2)ccn1 [sorafenib, Sorafenib]
most common side effects (advanced kidney cancer; 768 patients): hypertension, fatigue, diarrhea, and rash | tolerability (advanced kidney cancer; 768 patients): very well tolerated | progression-free survival (PFS), median (advanced kidney cancer; 769 analyzed patients): 24 weeks | 12-week progression-free rate (advanced kidney cancer; in vivo): 79% | disease control (advanced kidney cancer; [5]): 80% | partial response (advanced kidney cancer; [5]): 2% | stable disease (advanced kidney cancer; [5]): 78%
